Patent US8273760B2, “Indolo[3,2-c]quinoline compounds” (Kaohsiung Medical University, priority 2008, dated 2012)
Where a name gives a salt, the structure may show the parent alone. Read-outs that look alike come from different tables or passages of the source.

Experiments:
telomerase = telomerase (Homo sapiens, UniProt O14746); assay: Telomeric Repeat Amplification Protocol (TRAP) assay, cell-free; conditions: 0.5 μg total cell extract from H1299 human lung cancer cells, FIG. 1
HL-60 (TB) = assay: In vitro anticancer assay (NCI 60 cell line panel), HL-60 (TB); type: cell-based; conditions: Homo sapiens, leukemia
Protocol: (§1) Selected compounds were evaluated in vitro against the NCI's full panel of 60 cancer cell lines derived from nine cancer cell types, including: leukemia (CCRF-CEM, HL-60 (TB), K-562, MOLT-4, RPMI-8226, and SR); non-small cell lung cancer (A549/ATCC, EKVX, HOP-62, HOP-92, NCI-H226, NCI-H23, NCI-H322M, and NCI-H522); colon cancer (COLO 205, HCC-2998, HCT-116, HCT-15, HT29, KM12, and SW-620); CNS cancer (SF-268, SF-295, SF-539, SNB-19, SNB-75, and U251); melanoma (LOX IMVI, MALME-3M, M14, SK-MEL-2, SK-MEL-28, SK-MEL-5, UACC-62, and UACC-257); ovarian cancer (IGROV1, OVCAR-3, OVCAR-4, OVCAR-5, OVCAR-8, and SK-OV-3); renal cancer (786-0, A498, ACHN, CAKI-1, RXF 393, SN12C, TK-10, and UO-31); prostate cancer (PC-3 and DU-145); and breast cancer (MCF7, MCF7/ADR-RES, MDA-MB-231/ATCC, HS 578T, MDA-MB-435, MDA-N, and T-47D). For each compound, dose-response curves for each cell line were measured with five different drug concentrations, and the concentration causing 50% cell growth inhibition (GI50) compared with the control was calculated. The mean GI50 values of each tested compound for all the 60 tumor cell lines were also calculated.

K-562 = assay: In vitro anticancer assay (NCI panel), K-562; type: cell-based; conditions: Homo sapiens, K562; K-562, leukemia
Protocol: as §1

SR = assay: In vitro anticancer assay (NCI panel), SR; type: cell-based; conditions: Homo sapiens, leukemia
Protocol: as §1

A549/ATCC = assay: In vitro anticancer assay (NCI panel), A549/ATCC; type: cell-based; conditions: Homo sapiens, non-small cell lung cancer
Protocol: as §1

HOP-62 = assay: In vitro anticancer assay (NCI panel), HOP-62; type: cell-based; conditions: Homo sapiens; HOP-62, non-small cell lung cancer
Protocol: as §1

NCI-H460 = assay: In vitro anticancer assay (NCI panel), NCI-H460; type: cell-based; conditions: Homo sapiens; NCI-H460, non-small cell lung cancer
Protocol: as §1

COLO 205 = assay: In vitro anticancer assay (NCI panel), COLO 205; type: cell-based; conditions: Homo sapiens; COLO 205, colon cancer
Protocol: as §1

HCT-116 = assay: In vitro anticancer assay (NCI panel), HCT-116; type: cell-based; conditions: Homo sapiens; HCT-116, colon cancer
Protocol: as §1

HT29 = assay: In vitro anticancer assay (NCI panel), HT29; type: cell-based; conditions: Homo sapiens, HT-29; HT29, colon cancer
Protocol: as §1

SF-268 = assay: In vitro anticancer assay (NCI panel), SF-268; type: cell-based; conditions: Homo sapiens; SF-268, CNS cancer
Protocol: as §1

SF-295 = assay: In vitro anticancer assay (NCI panel), SF-295; type: cell-based; conditions: Homo sapiens; SF-295, CNS cancer
Protocol: as §1

SNB-19 = assay: In vitro anticancer assay (NCI panel), SNB-19; type: cell-based; conditions: Homo sapiens; SNB-19, CNS cancer
Protocol: as §1

LOX IMVI = assay: In vitro anticancer assay (NCI panel), LOX IMVI; type: cell-based; conditions: Homo sapiens, melanoma
Protocol: as §1

SK-MEL-2 = assay: In vitro anticancer assay (NCI panel), SK-MEL-2; type: cell-based; conditions: Homo sapiens; SK-MEL-2, melanoma
Protocol: as §1

UACC-62 = assay: In vitro anticancer assay (NCI panel), UACC-62; type: cell-based; conditions: Homo sapiens; UACC-62, melanoma
Protocol: as §1

OVCAR-3 = assay: In vitro anticancer assay (NCI panel), OVCAR-3; type: cell-based; conditions: Homo sapiens; OVCAR-3, ovarian cancer
Protocol: as §1

OVCAR-5 = assay: In vitro anticancer assay (NCI panel), OVCAR-5; type: cell-based; conditions: Homo sapiens; OVCAR-5, ovarian cancer
Protocol: as §1

OVCAR-8 = assay: In vitro anticancer assay (NCI panel), OVCAR-8; type: cell-based; conditions: Homo sapiens; OVCAR-8, ovarian cancer
Protocol: as §1

786-0 = assay: In vitro anticancer assay (NCI panel), 786-0; type: cell-based; conditions: Homo sapiens; 786-0, renal cancer
Protocol: as §1

ACHN = assay: In vitro anticancer assay (NCI panel), ACHN; type: cell-based; conditions: Homo sapiens, renal cancer
Protocol: as §1

SN12C = assay: In vitro anticancer assay (NCI panel), SN12C; type: cell-based; conditions: Homo sapiens, renal cancer
Protocol: as §1

PC-3 = assay: In vitro anticancer assay (NCI panel), PC-3; type: cell-based; conditions: Homo sapiens; PC-3, prostate cancer
Protocol: as §1

DU-145 = assay: In vitro anticancer assay (NCI panel), DU-145; type: cell-based; conditions: Homo sapiens; DU-145, prostate cancer
Protocol: as §1

MCF7 = assay: In vitro anticancer assay (NCI panel), MCF7; type: cell-based; conditions: Homo sapiens; MCF7, breast cancer
Protocol: as §1

MDA-MB-231/ATCC = assay: In vitro anticancer assay (NCI panel), MDA-MB-231/ATCC; type: cell-based; conditions: Homo sapiens, breast cancer
Protocol: as §1

MDA-MB-435 = assay: In vitro anticancer assay (NCI panel), MDA-MB-435; type: cell-based; conditions: Homo sapiens; MDA-MB-435, breast cancer
Protocol: as §1

[1] = tested on: NCI's full panel of 60 cancer cell lines; assay: In vitro anticancer assay, all cell lines of the NCI panel; type: cell-based, human
Protocol: as §1

[2] = Homo sapiens, mean values of over all cell lines tested, read-out: MG MID (mean GI50)

telomerase, sequence (O14746 whole entry): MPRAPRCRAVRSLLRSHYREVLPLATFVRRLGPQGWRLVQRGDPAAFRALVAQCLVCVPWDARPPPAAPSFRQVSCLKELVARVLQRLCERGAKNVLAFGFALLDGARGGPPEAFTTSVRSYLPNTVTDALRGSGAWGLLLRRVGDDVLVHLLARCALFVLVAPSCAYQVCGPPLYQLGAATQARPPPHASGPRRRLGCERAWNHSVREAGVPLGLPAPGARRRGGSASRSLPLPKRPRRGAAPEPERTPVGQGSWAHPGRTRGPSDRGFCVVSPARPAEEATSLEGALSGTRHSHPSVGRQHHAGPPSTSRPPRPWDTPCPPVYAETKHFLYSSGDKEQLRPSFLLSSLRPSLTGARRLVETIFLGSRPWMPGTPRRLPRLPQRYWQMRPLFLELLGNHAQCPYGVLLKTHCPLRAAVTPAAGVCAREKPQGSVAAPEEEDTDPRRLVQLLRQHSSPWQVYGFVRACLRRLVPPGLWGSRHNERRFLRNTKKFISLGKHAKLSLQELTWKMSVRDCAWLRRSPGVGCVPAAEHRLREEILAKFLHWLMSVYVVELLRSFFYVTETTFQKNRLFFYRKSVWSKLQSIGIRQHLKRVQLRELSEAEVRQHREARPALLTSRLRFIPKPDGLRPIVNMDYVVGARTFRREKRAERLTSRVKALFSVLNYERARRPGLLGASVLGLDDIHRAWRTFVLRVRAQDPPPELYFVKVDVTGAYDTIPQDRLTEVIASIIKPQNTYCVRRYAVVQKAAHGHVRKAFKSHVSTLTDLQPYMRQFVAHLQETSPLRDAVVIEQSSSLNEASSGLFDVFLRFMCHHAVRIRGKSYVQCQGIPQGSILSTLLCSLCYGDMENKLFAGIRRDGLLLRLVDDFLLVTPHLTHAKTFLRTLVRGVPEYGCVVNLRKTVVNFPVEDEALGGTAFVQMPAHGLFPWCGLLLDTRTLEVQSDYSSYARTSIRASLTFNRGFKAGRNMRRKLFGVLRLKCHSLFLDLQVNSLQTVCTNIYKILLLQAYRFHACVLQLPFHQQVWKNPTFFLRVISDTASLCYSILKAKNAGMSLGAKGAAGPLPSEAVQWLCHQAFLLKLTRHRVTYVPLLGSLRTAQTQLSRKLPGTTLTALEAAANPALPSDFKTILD

| Compound | concentration that completely inhibited telomerase activity (telomerase) | GI50 (HL-60 (TB)) | GI50 (K-562) | GI50 (SR) | GI50 (A549/ATCC) | GI50 (HOP-62) | GI50 (NCI-H460) | GI50 (COLO 205) | GI50 (HCT-116) | GI50 (HT29) | GI50 (SF-268) | GI50 (SF-295) | GI50 (SNB-19) | GI50 (LOX IMVI) | GI50 (SK-MEL-2) | GI50 (UACC-62) | GI50 (OVCAR-3) | GI50 (OVCAR-5) | GI50 (OVCAR-8) | GI50 (786-0) | also measured |
| --- | --- | --- | --- | --- | --- | --- | --- | --- | --- | --- | --- | --- | --- | --- | --- | --- | --- | --- | --- | --- | --- |
| 6-[2-(3,4-dihydroxyphenyl)ethylamino]-11 indolo[3,2-c]quinoline hydrochloride [Compound 7b] | approximately 2 nM |  |  |  |  |  |  |  |  |  |  |  |  |  |  |  |  |  |  |  |  |
| c1ccc2c(c1)nc(NCCN1CCNCC1)c1c3ccccc3[nH]c21 (as salt: hydrochloride) [Compound 5, N-(11H-Indolo[3,2-c]quinolin-6-yl)-2-(piperazin-1-yl)ethanamine] |  |  |  |  |  |  |  |  |  |  |  |  |  |  |  |  |  |  |  |  | melting point: 210 to 211 °C |
| c1ccc2c(c1)nc(NCCN1CCNCC1)c1c3ccccc3[nH]c21 [Compound 5, N-(11H-Indolo[3,2-c]quinolin-6-yl)-2-(piperazin-1-yl)ethanamine] | approximately 0.02 nM | 290 nM | 70 nM | 180 nM | 110 nM | 400 nM | 190 nM | 220 nM | 70 nM | 120 nM | 500 nM | 310 nM | 300 nM | 200 nM | 1060 nM | 1260 nM | 270 nM | 540 nM | 40 nM | 220 nM | GI50 (ACHN): 380 nM; GI50 (SN12C): 80 nM; GI50 (PC-3): 310 nM; GI50 (DU-145): 160 nM; GI50 (MCF7): 80 nM; GI50 (MDA-MB-231/ATCC): 340 nM; GI50 (MDA-MB-435): 630 nM; GI50 [1, 2]: ~300 nM; GI50 ([1]; mean values of over all cell lines tested, read-out: MG MID (mean GI50)): 350 nM |
| NCCCN1CCN(CCCNc2nc3ccccc3c3[nH]c4ccccc4c23)CC1 [Compound 6, {3-[4-(3-Aminopropyl)piperazin-1-yl]propyl}(11H-indolo[3,2-c]quinolin-6-yl)amine hydrochloride] | approximately 0.02 nM | 420 nM | 70 nM | 350 nM | 200 nM | 240 nM | 300 nM | 210 nM | 180 nM | 140 nM | 310 nM | 140 nM | 270 nM | 290 nM | 180 nM | 210 nM | 240 nM | 250 nM | 40 nM | 260 nM | GI50 (ACHN): 200 nM; GI50 (SN12C): < 10 nM; GI50 (PC-3): 350 nM; GI50 (DU-145): 120 nM; GI50 (MCF7): 120 nM; GI50 (MDA-MB-231/ATCC): 230 nM; GI50 (MDA-MB-435): 370 nM; GI50 [1, 2]: ~300 nM |
| Oc1ccc(CCNc2nc3ccccc3c3[nH]c4ccccc4c23)cc1 [Compound 7a, 6-[2-(4-Hydroxyphenyl)ethylamino]-11H-indolo[3,2-c]quinoline hydrochloride] | approximately 2 nM | 2400 nM | 1910 nM | 1480 nM | 1330 nM | 1630 nM | 1310 nM | 1180 nM | 1220 nM | 1420 nM | 1710 nM | 1380 nM | 1830 nM | 1590 nM | 1730 nM | 1660 nM | 1600 nM | 2890 nM | 1020 nM | 1290 nM | GI50 (ACHN): 1270 nM; GI50 (SN12C): 1270 nM; GI50 (PC-3): 1630 nM; GI50 (DU-145): 1450 nM; GI50 (MCF7): 1370 nM; GI50 (MDA-MB-231/ATCC): 1360 nM; GI50 (MDA-MB-435): 1600 nM; GI50 [1, 2]: 1700 nM |
| COc1ccc(CCNc2nc3ccccc3c3[nH]c4ccccc4c23)cc1OC [Compound 7c, 6-[2-(3,4-dimethoxyphenyl)ethylamino]-11H-indolo[3,2-c]quinoline hydrochloride] | approximately 2 nM |  |  |  |  |  |  |  |  |  |  |  |  |  |  |  |  |  |  |  |  |
| Cl.OCCNc1nc2ccccc2c2[nH]c3ccccc3c12 [Compound 7d, 2-(11H-indolo[3,2-c]quinolin-6-ylamino)ethanol hydrochloride] |  | 560 nM | 460 nM | 210 nM | 410 nM | 580 nM | 290 nM | 310 nM | 230 nM | 280 nM | 560 nM | 450 nM | 410 nM | 360 nM | 570 nM | 1150 nM | 470 nM | 1030 nM | 360 nM | 450 nM | GI50 (ACHN): 160 nM; GI50 (SN12C): 220 nM; GI50 (DU-145): 690 nM; GI50 (MCF7): 370 nM; GI50 (MDA-MB-231/ATCC): 430 nM; GI50 (MDA-MB-435): 410 nM; GI50 [1, 2]: 460 nM; melting point: 344 to 345 °C |
| CN(CCCNc1nc2ccccc2c2[nH]c3ccccc3c12)CCCNc1nc2ccccc2c2[nH]c3ccccc3c12.Cl [Compound 8b, N,N-bis-[3-(11H-indolo[3,2-c]quinolin-6-yl)aminopropyl]-N-methylamine hydrochloride] | approximately 0.02 nM | < 10 nM | < 10 nM | < 10 nM | < 10 nM | < 10 nM | < 10 nM | 20 nM | < 10 nM | < 10 nM | < 10 nM | < 10 nM | < 10 nM | < 10 nM | 70 nM | 60 nM | 50 nM | 80 nM | < 10 nM | < 10 nM | GI50 (ACHN): 20 nM; GI50 (SN12C): < 10 nM; GI50 (PC-3): 70 nM; GI50 (DU-145): 50 nM; GI50 (MCF7): < 10 nM; GI50 (MDA-MB-231/ATCC): 90 nM; GI50 (MDA-MB-435): 110 nM; GI50 [1, 2]: < 20 nM; GI50 ([1]; Homo sapiens, span over the cell lines of Table 2, read-out: GI50 value for each cell line (span over the cell lines)): 10 to 110 nM |
| CN(CCCN)CCCNc1nc2ccccc2c2[nH]c3ccccc3c12 [Compound 10, N^1-[3-(11H-Indolo[3,2-c]quinolin-6-ylamino)propyl]-N^1-methylpropane-1,3-diamine hydrochloride] |  | 90 nM | 40 nM | 370 nM | 80 nM | 150 nM | 310 nM | 180 nM | 80 nM | 150 nM | 250 nM | 130 nM | 150 nM | 210 nM | 200 nM | 190 nM | 220 nM | 150 nM | 40 nM | 90 nM | GI50 (ACHN): 380 nM; GI50 (SN12C): 70 nM; GI50 (PC-3): 320 nM; GI50 (DU-145): 240 nM; GI50 (MCF7): 50 nM; GI50 (MDA-MB-231/ATCC): 170 nM; GI50 (MDA-MB-435): 190 nM; GI50 [1, 2]: 180 nM |
